Test systems include UACC-257 melanoma; SF-268 CNS; 786-0 renal; SN12C renal; HCT-15 colon; NCI-H460 lung; SK-OV-3 ovarian; IGROV1 ovarian; KM12 colon; NCI-H522 lung.
What all share (assay): NCI tumour cell line growth inhibition, 48 h

The structures appear in SMILES notation.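 Exposure lasted 48 hours, with cells grown in 96-well plates and compounds tested at five concentrations. At the GI50, growth is halved. TGI is the concentration that stops growth completely.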 Bounds are passed on as bounds.

Consider `C=C[C@@H]1CCC/C=C/[C@@H]2C[C@H](O)C[C@H]2[C@H](O)/C=C/C(=O)O1`, for which the GI50 in the experiment with UACC-257 melanoma is 0.317 µM; with SF-268 CNS, 0.44 µM; with 786-0 renal it was 0.257 µM; in the experiment on SN12C renal, 1.53 µM; in the experiment on HCT-15 colon it was 2.23 µM; in the experiment on NCI-H460 lung it was 3.76 µM. For the same compound, the GI50 with SK-OV-3 ovarian was 0.709 µM; in the experiment with IGROV1 ovarian, 1.7 µM; with KM12 colon it was 0.35 µM; in the experiment on NCI-H522 lung, 1.52 µM. Also, the TGI with UACC-257 melanoma is above 100 µM; with SF-268 CNS it was above 100 µM; in the experiment on 786-0 renal, 0.606 µM; in the experiment on SN12C renal it was above 100 µM; in the experiment with HCT-15 colon it was above 100 µM; in the experiment on NCI-H460 lung, above 100 µM. The TGI in the experiment with SK-OV-3 ovarian is above 100 µM; with IGROV1 ovarian, above 100 µM; with KM12 colon, 1.35 µM; in the experiment with NCI-H522 lung, 4.24 µM.

As to `Oc1cccc2ccc(SSc3ccc4cccc(O)c4n3)nc12`, the TGI in the experiment on UACC-257 melanoma was 43.2 µM; in the experiment on SF-268 CNS it was 75.4 µM; in the experiment with 786-0 renal it was 40.4 µM; in the experiment with SN12C renal it was 37 µM; with HCT-15 colon, 53.3 µM; in the experiment on NCI-H460 lung it was 42.6 µM. Further, the TGI was 31.7 µM in the experiment with SK-OV-3 ovarian, 60.8 µM in the experiment on IGROV1 ovarian, 29.5 µM in the experiment with KM12 colon and 38.2 µM with NCI-H522 lung.

With `Cn1cnc(SC2=CC(=O)C=C3S[C@H]4C[C@@]23c2c(c(O)c3c5c2=NCCC=5C=N3)N4)c1CC(N)C(=O)O` (stereo not given in full), the GI50 in the experiment with UACC-257 melanoma is 11.6 µM; in the experiment on SF-268 CNS, 12.4 µM; with 786-0 renal it was 13.6 µM; in the experiment on SN12C renal, 7.26 µM; with HCT-15 colon, 18.4 µM; in the experiment on NCI-H460 lung it was 16.2 µM. The GI50 in the experiment with SK-OV-3 ovarian was 18 µM; in the experiment with IGROV1 ovarian, 11.6 µM; in the experiment on KM12 colon, 12.7 µM; in the experiment with NCI-H522 lung it was 2.42 µM. Further, the TGI in the experiment on UACC-257 melanoma amounted to 23.8 µM; with SF-268 CNS, 26.1 µM; with 786-0 renal it was 26.8 µM; with SN12C renal, 19.1 µM; in the experiment on HCT-15 colon it was 33.7 µM; in the experiment on NCI-H460 lung it was 31.6 µM. Moreover, the TGI in the experiment with SK-OV-3 ovarian is 36.6 µM; with IGROV1 ovarian, 23.9 µM; in the experiment with KM12 colon it was 25.4 µM; with NCI-H522 lung, 5.74 µM.

Consider `CCOc1ccc(Nc2ccnc3cc(Cl)ccc23)cc1`, for which the GI50 in the experiment on UACC-257 melanoma was above 100 µM; in the experiment on SF-268 CNS, 57 µM; in the experiment with 786-0 renal, 41.1 µM; in the experiment with SN12C renal it was above 100 µM; in the experiment with HCT-15 colon it was 4.38 µM; in the experiment on NCI-H460 lung it was 29.1 µM. Besides, the GI50 in the experiment with SK-OV-3 ovarian was above 100 µM; in the experiment with IGROV1 ovarian, above 100 µM; in the experiment with KM12 colon, 84.1 µM; in the experiment on NCI-H522 lung it was 26.4 µM. Further, the TGI in the experiment on UACC-257 melanoma, in the experiment with SF-268 CNS, with 786-0 renal, in the experiment on SN12C renal, in the experiment on HCT-15 colon and with NCI-H460 lung was above 100 µM in each case. Besides, the TGI in the experiment with SK-OV-3 ovarian was above 100 µM; in the experiment with IGROV1 ovarian it was above 100 µM; in the experiment with KM12 colon it was above 100 µM; in the experiment on NCI-H522 lung, 86.6 µM.

Take `COc1ccc(/C=C/c2cc(OC)c(OC)c(OC)c2)cc1OC`: the TGI with UACC-257 melanoma, in the experiment on SF-268 CNS, in the experiment with 786-0 renal, in the experiment on SN12C renal, in the experiment on HCT-15 colon and with NCI-H460 lung was above 100 µM each time. Further, the TGI with SK-OV-3 ovarian, in the experiment with IGROV1 ovarian, with KM12 colon and with NCI-H522 lung was above 100 µM each time.

For the compound `CC(=O)OC1CC2C(C)(C)C(=O)C=C[C@]2(C)C2CCC3(C)C(c4ccoc4)C(=O)C4OC43[C@]12C` (stereo not given in full), the TGI is 35.1 µM with UACC-257 melanoma; 53.9 µM with SF-268 CNS; 69.3 µM with 786-0 renal; 30.7 µM with SN12C renal; 29.9 µM in the experiment on HCT-15 colon; 33.3 µM in the experiment on NCI-H460 lung. Also, the TGI in the experiment on SK-OV-3 ovarian was 43.6 µM; in the experiment on IGROV1 ovarian, 47.5 µM; with KM12 colon it was 29.3 µM; in the experiment with NCI-H522 lung it was 26.9 µM.

On to `C/C(COc1ccc2oc(-c3ccccc3)cc(=O)c2c1)=N\O`, for which the GI50 with UACC-257 melanoma was above 100 µM; in the experiment on SF-268 CNS, 24.3 µM; with 786-0 renal it was 9.05 µM; in the experiment on SN12C renal, 24 µM; in the experiment with HCT-15 colon, 7.87 µM; with NCI-H460 lung, 14.3 µM. Besides, the GI50 in the experiment on SK-OV-3 ovarian was above 100 µM; in the experiment with IGROV1 ovarian it was 43.8 µM; in the experiment with KM12 colon, 2.39 µM; in the experiment on NCI-H522 lung, above 100 µM. The TGI in the experiment with UACC-257 melanoma, with SF-268 CNS, in the experiment on 786-0 renal, in the experiment with SN12C renal, in the experiment with HCT-15 colon and in the experiment on NCI-H460 lung was above 100 µM throughout. Also, the TGI is above 100 µM with SK-OV-3 ovarian, above 100 µM in the experiment on IGROV1 ovarian, 39.7 µM in the experiment with KM12 colon and above 100 µM in the experiment on NCI-H522 lung.

Regarding `C/C(=N\NC(=O)c1ccccc1O)c1c(O)cc(C)oc1=O`, the TGI in the experiment with UACC-257 melanoma, in the experiment on SF-268 CNS, in the experiment with 786-0 renal, with SN12C renal, in the experiment on HCT-15 colon and in the experiment with NCI-H460 lung was above 100 µM throughout. The TGI was 86.7 µM in the experiment on SK-OV-3 ovarian, above 100 µM with IGROV1 ovarian, above 100 µM in the experiment with KM12 colon and above 100 µM with NCI-H522 lung.

In the case of `CCCCCCCCCCCCCCCCCC1=NC(C)(C)CN1C(C)(C)CO`, the GI50 in the experiment on UACC-257 melanoma is 1.78 µM; in the experiment with SF-268 CNS it was 1.54 µM; in the experiment on 786-0 renal, 1.45 µM; with SN12C renal, 1.52 µM; in the experiment on HCT-15 colon, 1.38 µM; in the experiment with NCI-H460 lung, 1.31 µM. For the same compound, the GI50 in the experiment with SK-OV-3 ovarian was 1.84 µM; in the experiment on IGROV1 ovarian, 1.08 µM; in the experiment on KM12 colon, 1.34 µM; in the experiment on NCI-H522 lung, 1.63 µM. In addition, the TGI in the experiment with UACC-257 melanoma was 3.5 µM; with SF-268 CNS, 3.02 µM; with 786-0 renal it was 2.89 µM; in the experiment on SN12C renal, 3.25 µM; in the experiment with HCT-15 colon, 3.16 µM; with NCI-H460 lung it was 2.8 µM. Also, the TGI amounted to 3.51 µM with SK-OV-3 ovarian, 2.6 µM in the experiment on IGROV1 ovarian, 2.64 µM in the experiment with KM12 colon and 3.25 µM in the experiment with NCI-H522 lung.

The values are drawn from PubChem BioAssay (NCI).
